Measured values taken from patent publication US20050106745A1, “Combination of solubility and membrane permeability measurement methods for profiling of chemical compounds” (AGY Therapeutics, Inc., priority 2003, published 2005).
Values after ≈ are worked out from the molar mass of the structure shown. Where a name gives a salt, the structure may show the parent alone. Read-outs that look alike come from different tables or passages of the source.

Columns and labels:
physchem = conditions: for solubility kinetic at 90 min / solubility at 90 min: kinetic from dmso stock
Description: The aqueous and aqueous/methanol solutions were shaken for 90 minutes at room temperature. Using a 96-tip Biomek FX liquid handling system (Beckman Coulter, Fullterton, Calif.), the solutions were transferred to a MultiScreen-Solubility 96-well filterplate (MSSLBPC10, Millipore, Mass.), vacuum filtered, and collected into a clean 96-deepwell plate. […] The sample wells were diluted in the UV/Vis plate with pre-dispensed methanol (20% v/v) for spectroscopic consistency. The remaining portion of the filtrate was sealed and kept in a cool, dark place to be used within 2 hours in the permeability assay. […] The absorption spectra were then corrected for variance in path length by the PathCheck™ algorithm in the SoftMaxPro® software. Next, the optical density (OD) at an appropriate wavelength (λ) was determined for each compound by the analysis algorithm as follows: the UV-Visible spectra were analyzed with a program written in HPBASIC for Windows (TransEra Corporation, Orem, Utah). Briefly, from the spectrum of each well a heuristically matched, scaled and appropriately shifted baseline was subtracted. The locations (λ) and the values of all the peaks [OD(λ)] were then determined. […] In addition, built in user interface tools offered a convenient way to review and manually reassign the λ values to address special cases. When no peaks were found in the spectra, the OD values at 265 nm were used.
For the solubility calculation, a consensus λ was determined for the sample and reference spectra and the corresponding OD values were used in equation (1). The concentrations of the compounds in solution were determined by the following formula: [formula] where OD(λ)sample and OD(λ)Reference are the optical densities at a given wavelength for each compound and [Reference] is the same compound at a known reference concentration.

[1] = rat model, literature (Kelder et al. 1999); cited from earlier work
[2] = BBB-PAMPA effective permeability (Sol-PAMPA); conditions: for Papp at 16 h: PAMPA; for AGY Ranking (CNS+/CNS−): ranking from BBB-Sol-PAMPA Pe; for Pe × 10^−6 (effective BBB permeability): BBB-PAMPA, pH 7.4 to 7.4, input at solubility limit, 16 hours, n=7
[3] = cited from earlier work
[4] = PAMPA
[5] = cited from earlier work; remark: listed apart in the source
in vitro = conditions: PAMPA, pH 7.4

In the case of `CN(C)CCC=C1c2ccccc2CCc2ccccc21` [Amitriptyline HCl, amitriptyline], the solubility kinetic at 90 min (physchem; pH 7.4, aqueous buffer) is given as 163 µM, the “[Brain]/[Blood]” value [1] is given as 9.55 and the Papp at 16 h ([2]; pH 7.4) is given as 12.8 ×10⁻⁶ cm/s. For the same compound, the “AGY Ranking (CNS+/CNS−)” value [2] was “+ (CNS+ compounds have a Pe>2.0×10^−6 cm/sec)”.

With `Cn1c(=O)c2c(ncn2C)n(C)c1=O` [Caffeine, caffeine] the “AGY Ranking (CNS+/CNS−)” value [2] was “− (CNS- compounds have a Pe<2.0×10^−6 cm/sec)”.

For `NC(=O)N1c2ccccc2C=Cc2ccccc21` [Carbamazepine, carbamazepine], the solubility kinetic at 90 min (physchem; pH 7.4, aqueous buffer) is given as 253 µM (≈ 59.8 µg/mL), the “[Brain]/[Blood]” value [1] is given as 1.00 and the Papp at 16 h ([2]; pH 7.4) is given as 12.9 ×10⁻⁶ cm/s. The “AGY Ranking (CNS+/CNS−)” value [2] was “+ (CNS+ compounds have a Pe>2.0×10^−6 cm/sec)”.

For `Clc1cccc(Cl)c1N=C1NCCN1` [Clonidine, clonidine], the solubility kinetic at 90 min (physchem; pH 7.4, aqueous buffer) is given as 248 µM (≈ 57.1 µg/mL), the “[Brain]/[Blood]” value [1] is given as 1.29 and the Papp at 16 h ([2]; pH 7.4) is given as 2.01 ×10⁻⁶ cm/s. The “AGY Ranking (CNS+/CNS−)” value [2] was “+ (CNS+ compounds have a Pe>2.0×10^−6 cm/sec)”.

For `CNCCCN1c2ccccc2CCc2ccccc21` [Desipramine, desipramine], the solubility at 90 min (physchem; pH 3, aqueous buffer) was > 350 µM, the solubility at 90 min (physchem; pH 5, aqueous buffer) was > 350 µM and the solubility at 90 min (physchem; pH 7.4, aqueous buffer) was > 350 µM. The solubility kinetic at 90 min (physchem; pH 7.4, aqueous buffer) was 274 µM (≈ 73 µg/mL), the solubility at 90 min (physchem; pH 9, aqueous buffer) was > 350 µM and the “Literature (solubility)” value ([3]; pH 7.4) was 155 µM. For the same compound, the “[Brain]/[Blood]” value [1] was 10.00, the Papp at 16 h ([2]; pH 7.4) was 17.9 ×10⁻⁶ cm/s and the “AGY Ranking (CNS+/CNS−)” value [2] was “+ (CNS+ compounds have a Pe>2.0×10^−6 cm/sec)”.

With `CN1CC[C@@]23CCCC[C@@H]2[C@@H]1Cc1ccc(O)cc13` [Dextrophan, dextrophan] the “pH 7.4 Solubility” value (physchem; pH 7.4, Table 2 test set, n=7) was 300 μM, the “AGY Ranking (CNS+/CNS−)” value [4] was “+ (key: CNS+ compounds have a Pe>2.0×10^−6 cm/sec; CNS- compounds have a Pe<2.0×10^−6 cm/sec)” and the “Pe × 10^−6 (effective BBB permeability)” value ([4]; pH 7.4) was 3.14 ×10^−6 cm/sec. The “In Vivo CNS +/−” value [5] was “+”.

With `O=C(O)Cc1ccccc1Nc1c(Cl)cccc1Cl` [Diclofenac, diclofenac] the solubility at 90 min (physchem; pH 3, aqueous buffer) was 9 µM (≈ 2.67 µg/mL), the solubility at 90 min (physchem; pH 5, aqueous buffer) was 18 µM (≈ 5.33 µg/mL) and the solubility at 90 min (physchem; pH 7.4, aqueous buffer) was 274 µM (≈ 81.1 µg/mL). For the same compound, the solubility at 90 min (physchem; pH 9, aqueous buffer) was 324 µM (≈ 96 µg/mL), the “Literature (solubility)” value ([3]; pH 5) was 30 µM and the “Literature (solubility)” value ([3]; pH 7.4) was >350 µM. The “Literature (solubility)” value ([3]; pH 9) was >350 µM and the Papp at 16 h [2] was ~10 ×10⁻⁶ cm/s.

For `COCCCC/C(=N\OCCN)c1ccc(C(F)(F)F)cc1` [Fluvoxamine, fluvoxamine], the solubility kinetic at 90 min (physchem; pH 7.4, aqueous buffer) was 207 µM (≈ 65.9 µg/mL).

For `Cc1cc(NC(=O)C2=C(O)c3ccccc3S(=O)(=O)N2C)no1` [Isoxicam, isoxicam], the solubility kinetic at 90 min (physchem; pH 7.4, aqueous buffer) was 322 µM (≈ 108 µg/mL), the Papp at 16 h ([2]; pH 7.4) was 0.71 ×10⁻⁶ cm/s and the “AGY Ranking (CNS+/CNS−)” value [2] was “− (CNS- compounds have a Pe<2.0×10^−6 cm/sec)”.

For `CCn1cc(C(=O)O)c(=O)c2cc(F)c(N3CCNC(C)C3)c(F)c21` (centres unmarked) [Lomafloxacin, lomafloxacin], the “pH 7.4 Solubility” value (physchem; 90 min, pH 7.4) was 288 μM, the “Pe × 10^−6 (effective BBB permeability)” value [2] was 0.17 ×10^−6 cm/sec and the “AGY Ranking (CNS+/CNS−)” value [2] was “− (CNS- compounds have a Pe<2.0×10^−6 cm/sec)”.

In the case of `CN(C)C(=O)C(CCN1CCC(O)(c2ccc(Cl)cc2)CC1)(c1ccccc1)c1ccccc1` [Loperamide], the solubility kinetic at 90 min (physchem; pH 7.4, aqueous buffer) is reported as 165 µM (≈ 78.7 µg/mL), the Papp (in vitro) is reported as 1.07 ×10⁻⁶ cm/s and the “AGY Ranking (CNS+/CNS−)” value [2] is reported as “− (CNS- compounds have a Pe<2.0×10^−6 cm/sec)”.

Work on `C[C@]12N[C@H](Cc3ccccc31)c1ccccc12` [MK-801, dizocilpine] yielded a solubility kinetic at 90 min (physchem; pH 7.4, aqueous buffer) of 212 µM (≈ 46.9 µg/mL).

For `CC(C)(C)[N+]([O-])=Cc1ccccc1` [N-tert-Butyl-a-phenylnitrone, N-tert-Butyl-alpha-phenylnitrone], the “AGY Ranking (CNS+/CNS−)” value [2] was “+ (CNS+ compounds have a Pe>2.0×10^−6 cm/sec)”.

Compound `Nc1ccc(/N=N/c2ccccc2)c(N)n1` [Phenazopyridine, phenazopyridine] has a solubility at 90 min (physchem; pH 3, aqueous buffer) of 332 µM (≈ 70.8 µg/mL), a solubility at 90 min (physchem; pH 5, aqueous buffer) of 89 µM (≈ 19 µg/mL) and a solubility at 90 min (physchem; pH 7.4, aqueous buffer) of 86 µM (≈ 18.3 µg/mL). For the same compound, the solubility at 90 min (physchem; pH 9, aqueous buffer) was 71 µM (≈ 15.1 µg/mL), the “Literature (solubility)” value ([3]; pH 3) was >350 µM and the “Literature (solubility)” value ([3]; pH 5) was 150 µM. For the same compound, the “Literature (solubility)” value ([3]; pH 7.4) was 58 µM and the “Literature (solubility)” value ([3]; pH 9) was 49 µM.

`CN1C(C(=O)Nc2ccccn2)=C(O)c2ccccc2S1(=O)=O` [Piroxicam, piroxicam] showed a solubility at 90 min (physchem; pH 3, aqueous buffer) of 55 µM (≈ 18.2 µg/mL), a solubility at 90 min (physchem; pH 5, aqueous buffer) of 66 µM (≈ 21.9 µg/mL) and a solubility at 90 min (physchem; pH 7.4, aqueous buffer) of 257 µM (≈ 85.2 µg/mL). The solubility at 90 min (physchem; pH 9, aqueous buffer) was 336 µM (≈ 111 µg/mL), the “Literature (solubility)” value ([3]; pH 3) was 32 µM and the “Literature (solubility)” value ([3]; pH 5) was 32 µM. For the same compound, the “Literature (solubility)” value ([3]; pH 7.4) was 300 µM and the “Literature (solubility)” value ([3]; pH 9) was >350 µM.

With `CC(C)NCC(O)COc1cccc2ccccc12` (centres unmarked) [Propranolol, s-propranolol] the solubility at 90 min (physchem; pH 3, aqueous buffer) was > 350 µM, the solubility at 90 min (physchem; pH 5, aqueous buffer) was > 350 µM and the solubility at 90 min (physchem; pH 7.4, aqueous buffer) was > 350 µM. The solubility at 90 min (physchem; pH 9, aqueous buffer) was > 350 µM and the “Literature (solubility)” value ([3]; pH 7.4) was 240 µM.

With `c1ccc2nc(N3CCNCC3)ccc2c1` [Quipazine] the solubility kinetic at 90 min (physchem; pH 7.4, aqueous buffer) was 239 µM (≈ 51 µg/mL), the Papp at 16 h ([2]; pH 7.4) was 14.9 ×10⁻⁶ cm/s and the “AGY Ranking (CNS+/CNS−)” value [2] was “+ (CNS+ compounds have a Pe>2.0×10^−6 cm/sec)”.

In the case of `CNC(=C[N+](=O)[O-])NCCSCc1ccc(CN(C)C)o1` [Ranitidine HCl, ranitidine], the solubility kinetic at 90 min (physchem; pH 7.4, aqueous buffer) is listed as 174 µM, the “[Brain]/[Blood]” value [1] is listed as 0.06 and the Papp at 16 h ([2]; pH 7.4) is listed as 0.02 ×10⁻⁶ cm/s. For the same compound, the “AGY Ranking (CNS+/CNS−)” value [2] was “− (CNS- compounds have a Pe<2.0×10^−6 cm/sec)”.

With `Cl.NC1CCN(c2cccc(Cl)n2)CC1` [SR-57227A] the “pH 7.4 Solubility” value (physchem; pH 7.4, Table 2 test set, n=7) was 294 μM, the “Pe × 10^−6 (effective BBB permeability)” value [2] was 6.12 ×10^−6 cm/sec and the “AGY Ranking (CNS+/CNS−)” value [2] was “+ (CNS+ compounds have a Pe>2.0×10^−6 cm/sec)”.

With `Cn1c(=O)c2[nH]cnc2n(C)c1=O` [Theophylline, theophylline] the solubility at 90 min (physchem; pH 3, aqueous buffer) was 330 µM (≈ 59.5 µg/mL), the solubility at 90 min (physchem; pH 5, aqueous buffer) was 337 µM (≈ 60.7 µg/mL) and the solubility at 90 min (physchem; pH 7.4, aqueous buffer) was 290 µM (≈ 52.2 µg/mL). For the same compound, the solubility at 90 min (physchem; pH 9, aqueous buffer) was > 350 µM and the “Literature (solubility)” value ([3]; pH 7.4) was >350 µM.

In the case of `c1cc(CN2CCCCC2)cc(OCCCNc2nc3ccccc3s2)c1` [Zolantidine], the solubility kinetic at 90 min (physchem; pH 7.4, aqueous buffer) is listed as 108 µM (≈ 41.2 µg/mL), the “[Brain]/[Blood]” value [1] is listed as 1.38 and the Papp at 16 h ([2]; pH 7.4) is listed as 12.5 ×10⁻⁶ cm/s. The “AGY Ranking (CNS+/CNS−)” value [2] was “+ (CNS+ compounds have a Pe>2.0×10^−6 cm/sec)”.
